Experimental data as given in patent US20250059574A1, “METHODS FOR PREPARING (2S,3R)-P-METHYLSULFONYLPHENYLSERINE” (TAIZHOU UNIVERSITY, priority 2023, published 2025).

Tested on: transaldolase (Taizhou Lingfeng Biotechnology Co., Ltd., LF145)
Assay: Effect of acetaldehyde on the activity of transaldolase
Type: biochemical
Conditions: reaction 10 min, 35° C., HPLC, without acetaldehyde 3.31 g/L
Procedure: In a 50 mL round-bottom flask, 10 mL of a reaction system contained 14 g/L p-methylsulfonylbenzaldehyde, 10.5 g/L threonine, 1 g/L pyridoxal phosphate, and 1 mL of transaldolase (Taizhou Lingfeng Biotechnology Co., Ltd., LF145), different concentrations (0, 1 g/L, 5 g/L, 10 g/L, and 20 g/L) of acetaldehyde were respectively prepared, the mixture was shaken in a water bath at 35° C. for 10 min, and the content of D-acid produced was detected by HPLC.

With `CC=O` [acetaldehyde] the “(2S,3R)-p-methylsulfonylphenylserine produced” value (1 g/L acetaldehyde added) was 1.76 g/L, the “(2S,3R)-p-methylsulfonylphenylserine produced” value (5 g/L acetaldehyde added) was 0.66 g/L and the “(2S,3R)-p-methylsulfonylphenylserine produced” value (10 g/L acetaldehyde added) was 0.303 g/L. The “(2S,3R)-p-methylsulfonylphenylserine produced” value (20 g/L acetaldehyde added) was 0.153 g/L.
